In patent US8318898B2, “Synthetic peptides for use as inhibitors of neurotransmitter secretion and as inducers of cellular relaxation” (Universite de Lausanne, priority 2005, dated 2012):
Read-outs that look alike come from different tables or passages of the source. Ends that are not written are not given here.

What was measured:
PC12 cells = experiment: Inhibition of [3H]norepinephrine neurosecretion by PC12 cells; format: cell-based, rat; conditions: for inhibition of neurotransmitter-evoked secretion: concentration not given, peptide alone; for level of inhibition maintained over the 48 hour period: cultured with PC12 cells for 48 hours in the presence or absence of serum, up to 90%; for inhibition of secretion, stability test: 100 μM
Description: Using the neurosecretion assay described above, peptides fused to the TAT-PTD (L-TAT) were tested for inhibition of neurotransmitters and compared to use of L-TAT alone (SEQ ID NO: 3). In vitro screening for synthetic peptides capable of efficiently and selectively blocking neurotransmitter release in the PC12 cell line grown under defined conditions was performed.
PC12 cells were washed with DMEM-WM (Dulbecco's Modified Eagle Medium (GIBCO cat. no. 31968) completed with 25 units of penicillin and streptomycin each) and loaded for 1-2 h with [^3H] norepinephrine (NE; 0.5 μCi/ml) in DMEM-CM (DMEM-WM complemented with 6% horse serum and 6% fetal calf serum). Cells were washed for 1 h with DMEM-WM, and then washed 2 times at 5-minute intervals. Basal release was determined by a 15-minutes incubation with CaSB-glucose 5 mM K^+ (CaSB-glucose: 140 mM NaCl, 5 mM KCl, 2 mM CaCl2, 11 mM glucose, [pH 7.4]). The peptides were added to the cells at defined concentrations after loading with NE but before induction of secretion. Cells were depolarized with 85 mM K^+ (CaSB-glucose with Na^+ reduced accordingly) for 15 minutes to determine stimulated release. Superfusate (1 ml) was removed to tubes. Adherent cells were solubilized in CaSB-glucose-0.1% Triton (1 ml/well). The quantities of released and non-released radiolabeled neurotransmitter were determined by liquid scintillation counting of cleared superfusates and cell lysates, respectively. Total uptake was calculated by addition of released and retained radioactivity, and the percentage release was as calculated (released counts/total uptake counts)×100. Results were also expressed as percent inhibition of neurosecretion.

PC12-ES cells = experiment: [3H]NE evoked secretion by PC12-ES cells with secretagogues; format: cell-based, rat; conditions: potassium 80 mM, nicotine 0.1 mM or carbachol 1 mM, 15 minutes
Description: Neurotransmitter Secretion by PC12-ES. PC12 cells offer a number of advantages for studies of regulated secretion. Exocytosis of large dense-core vesicles (LDCVs) in these cells can be easily assayed for the release of radioactive norepinephrine ([^3H]NE) from pre-labeled cells [Greene et al., Brain Res, 129:247-63, 1977; Greene et al., J Neurochem, 30:579-86, 1978; Greene et al., J. Neurochem. 30:549-55, 1978; Greene et al., Brain Res. 138:521-8; 1977; Greene et al., Nature 268:349-51, 1977]. The neurosecretion assay was carried out by measuring [^3H]NE evoked secretion with PC12-ES cells.
PC12-ES cells were either untreated, treated with STSP (100 nM), or treated with NGF (50 ng/ml) for 48 h before the loading with [^3H]NE and prepared for release measurements. […] Media were collected, and released [^3H]NE as well as the total cell content were determined by liquid scintillation counting. Basal secretion was measured in calcium secretion buffer (CaSB) without secretagogue or CaSB supplemented with 11 mM glucose (CaSB-Glucose). The data are expressed in Table 1 as the percent secretion: [amount released/(amount released+amount in cell lysate)]×100. Net secretion is secretagogue-stimulated release minus basal release.

Recombinant furin = Recombinant furin (Homo sapiens, UniProt P09958); experiment: biochemical; format: biochemical
Chain of Recombinant furin (P09958 108-794): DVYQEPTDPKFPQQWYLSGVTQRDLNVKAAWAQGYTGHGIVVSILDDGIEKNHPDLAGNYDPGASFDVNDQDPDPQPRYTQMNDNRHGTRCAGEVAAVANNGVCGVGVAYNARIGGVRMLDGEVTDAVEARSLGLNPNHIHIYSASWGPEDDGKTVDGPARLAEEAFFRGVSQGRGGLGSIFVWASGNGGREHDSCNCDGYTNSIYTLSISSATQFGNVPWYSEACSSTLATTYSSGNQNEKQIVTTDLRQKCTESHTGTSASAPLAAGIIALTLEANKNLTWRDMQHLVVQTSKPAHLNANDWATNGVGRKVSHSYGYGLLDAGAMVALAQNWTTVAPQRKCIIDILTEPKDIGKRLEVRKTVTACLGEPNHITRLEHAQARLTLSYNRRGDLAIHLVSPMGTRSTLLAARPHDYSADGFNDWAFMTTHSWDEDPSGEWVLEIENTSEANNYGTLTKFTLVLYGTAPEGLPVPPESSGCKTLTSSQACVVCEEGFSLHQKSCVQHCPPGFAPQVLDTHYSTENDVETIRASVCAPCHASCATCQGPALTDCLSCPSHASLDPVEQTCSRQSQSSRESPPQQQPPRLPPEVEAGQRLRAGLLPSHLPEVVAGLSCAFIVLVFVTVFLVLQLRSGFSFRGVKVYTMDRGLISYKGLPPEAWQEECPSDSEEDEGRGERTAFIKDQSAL
Description: To determine if the peptides described herein have an effect on the activity of PC enzymes which are involved in a condition or disorder such as fibrosis, the effect of the peptides on furin activity in vitro was measured as percent inhibition of cleavage of the furin substrate fluorogenic t-butyloxycarbonyl (Boc)-RVRR-7-amino-4-methylcoumarin (MCA).
All in vitro enzyme studies were performed at room temperature in a final volume of 50-100 μl in 96-well flat-bottom black plates. The buffer consisted of 100 mM HEPES, 1 mM CaCl2, 0.5% TritonX-100, and 1 mM 2-β-mercaptoethanol pH 7.5. Assays were performed using Boc-RVRR-MCA as fluorogenic substrate at 100 μM. Recombinant furin (0.8 U of activity) was incubated with Boc-RVRR-MCA in the presence or absence of varying concentrations of synthetic peptides D-9Rac/am (SEQ ID NO. 15), L-Bel1 (SEQ ID NO. 3), or L-9K (SEQ ID NO. 6). One unit of activity is defined as the amount of furin that can release 1 μmol of MCA from the fluorogenic Boc-RVRR-MCA per min at 30° C. The release of highly fluorescent 7-amino 4-methyl coumarin (MCA) from the Boc-RVRR-MCA was monitored by a spectrofluorometer instrument at excitation and emission wavelengths of 370 nm/460 nm. […]

furin = biological target: T1, furin (Rattus norvegicus, UniProt P23377); format: biochemical
T1 construct: Furin activity was constitutively detected in PC12-ES cells; endogenous in cells; host or cells: PC12-ES cells (lysate)
T1 sequence (P23377 108-793): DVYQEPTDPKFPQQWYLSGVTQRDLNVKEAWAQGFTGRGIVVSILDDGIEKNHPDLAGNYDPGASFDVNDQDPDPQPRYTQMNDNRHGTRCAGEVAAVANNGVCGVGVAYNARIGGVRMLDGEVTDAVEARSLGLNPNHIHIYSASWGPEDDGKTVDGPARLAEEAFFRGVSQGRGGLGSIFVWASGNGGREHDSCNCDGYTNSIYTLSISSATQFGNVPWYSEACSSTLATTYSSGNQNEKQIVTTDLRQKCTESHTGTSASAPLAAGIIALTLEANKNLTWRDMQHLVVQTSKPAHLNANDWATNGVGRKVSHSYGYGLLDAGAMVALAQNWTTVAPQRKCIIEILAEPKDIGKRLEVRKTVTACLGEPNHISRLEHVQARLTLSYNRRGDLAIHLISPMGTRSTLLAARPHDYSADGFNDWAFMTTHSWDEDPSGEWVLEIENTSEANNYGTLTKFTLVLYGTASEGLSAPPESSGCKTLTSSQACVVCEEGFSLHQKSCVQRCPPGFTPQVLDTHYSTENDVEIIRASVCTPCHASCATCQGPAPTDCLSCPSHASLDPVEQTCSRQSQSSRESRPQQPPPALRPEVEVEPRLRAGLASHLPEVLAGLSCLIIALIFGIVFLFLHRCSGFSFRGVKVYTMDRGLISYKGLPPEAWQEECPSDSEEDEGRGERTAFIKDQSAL
Description: To monitor the intracellular furin activity, 80% confluent PC12-ES cells were washed twice with ice-cold phosphate-buffered saline (PBS1×) by centrifugation at 800×g for 5 minutes at 4° C., resuspended in 100 mM HEPES, 1 mM CaCl2, 0.5% TritonX-100, and 1 mM 2-β-mercaptoethanol, pH 7.5, sonicated 6 times at 4° C. for 10 seconds, and then centrifuged at 8000×g for 20 minutes at 4° C. The protein concentration in the samples was determined using a bicinchonic acid protein assay kit (Pierce Chemical Co.).
Intracellular furin activity was measured with a furin-specific fluorogenic substrate, t-butyloxycarbonyl (Boc)-[…]-7-amino-4-methylcoumarin (MCA). Briefly, the cell lysate (20 μg-60 μg of protein) prepared as described above was incubated with 100 μM Boc-RVRR-MCA in a 96-well flat-bottom black plate for at least 6 hours at room temperature and fluorescence measured by excitation at 365 nm and emission at 450 nm.

[1] = cited from earlier work

## 3D-MRP: SEQ ID NO: 8 (KKKKKFDFKKPFKLDGLDFKRNRK; Synthetic peptide 3DMRPED) [Peptide 3D-MRP]
PC12 cells
  dose dependence of inhibition of neurosecretion: dose dependent inhibition

## 9R-L-Ac-am: SEQ ID NO: 11 (Ac-GYGRRRRRRRRRG-NH2) [Peptide 9R-L-Ac-am]
PC12 cells
  inhibition of neurotransmitter-evoked secretion: approximately 67%
  level of inhibition maintained over the 48 hour period: approximately 80%

## 9R-L: SEQ ID NO: 5 (GYGRRRRRRRRRG; Synthetic peptide 9R-L)
PC12 cells
  inhibition of neurotransmitter-evoked secretion: approximately 70%
  level of inhibition maintained over the 48 hour period: approximately 80%

## 9R-MRP: SEQ ID NO: 22; fusion peptide (GYGRRRRRRRRRGKKKKKKFSFKKPFKLSGLSFKRNRK; Synthetic peptide 9R-MRP)
PC12 cells; 50 μM (mixture: 50 μM each)
  inhibition of secretion: approximately 70%

## C[N+](C)(C)CCOC(N)=O [Carbachol]
PC12-ES cells; CaSB-Glucose, NGF differentiated cells
  percent secretion of [3H]NE: 32.4%
PC12-ES cells; CaSB-Glucose, STSP differentiated cells
  percent secretion of [3H]NE: 57%
PC12-ES cells; CaSB-Glucose, non-differentiated cells
  percent secretion of [3H]NE: 37.24%
PC12-ES cells; CaSB, NGF differentiated cells
  percent secretion of [3H]NE: 27%
PC12-ES cells; CaSB, STSP differentiated cells
  percent secretion of [3H]NE: 46.5%
PC12-ES cells; CaSB, non-differentiated cells
  percent secretion of [3H]NE: 44.7%

## O=C(O)CN(CCN(CC(=O)O)CC(=O)O)CC(=O)O [EDTA, reference compound]
Recombinant furin
  inhibition of in vitro furin activity (in words): effectively suppressed
furin
  inhibition of intracellular furin activity (in words): inhibited

## O=C(O)CN(CCOCCOCCN(CC(=O)O)CC(=O)O)CC(=O)O [EGTA, reference compound]
Recombinant furin; Boc-RVRR-MCA 100 μM as substrate
  inhibition of in vitro furin activity (in words): effectively suppressed
furin; EDTA 50 mM, EGTA 50 mM, Dec-RVKR-CMK 50 μM
  inhibition of intracellular furin activity (in words): inhibited

## GRRRRRRRRRGYG [Peptide 9Rrev-D]
PC12 cells
  inhibition of neurotransmitter-evoked secretion: approximately 57%
  level of inhibition maintained over the 48 hour period: approximately 80%

## GYGRRRRRRRRRG [Peptide 9R-D]
PC12 cells
  inhibition of neurotransmitter-evoked secretion: approximately 65%
  level of inhibition maintained over the 48 hour period: approximately 80%

## L-Tat 49-86: SEQ ID NO: 4 (GRKKRRQRRRAHQNSQTHQASLSKQPTSQPRGDPTGKEG; Synthetic peptide L-Tat 49-86)
PC12 cells; 0 hours
  inhibition of secretion, stability test: <20%
PC12 cells; 1 hour
  inhibition of secretion, stability test: >10%
PC12 cells; 24 hours
  inhibition of secretion, stability test: 26%
PC12 cells; 48 hours
  inhibition of secretion, stability test: 25%
PC12 cells; No Serum
  inhibition of secretion, stability test: 50%

## L-Tat-3D-MRP: SEQ ID NO: 10 (GYGRKKRRQRRRGKKKKKFDFKKPFKLDGLDFKRNRK; Synthetic peptide L-Tat-3DMRPED)
PC12 cells
  dose dependence of inhibition of neurosecretion: dose dependent inhibition

## L-Tat-ESUP-A: SEQ ID NO: 1; ESUP-A fused to the TAT-PTD (GYGRKKRRQRRRGSNKTRIDEANQRATKMLGSG; Synthetic peptide L-Tat-ESUP-A)
PC12 cells
  dose dependence of inhibition of neurosecretion: dose dependent inhibition
PC12 cells; peptide 10 μM
  inhibition of PC12 neurotransmitter secretion: 30%
PC12 cells; peptide 50 μM
  inhibition of PC12 neurotransmitter secretion: 40%
PC12 cells; peptide 100 μM
  inhibition of PC12 neurotransmitter secretion: 50%
PC12 cells; peptide 250 μM
  inhibition of PC12 neurotransmitter secretion: 70%

## L-Tat-MRP: SEQ ID NO: 9 (GYGRKKRRQRRRGKKKKKFSFKKPFKLSGLSFKRNRK; Synthetic peptide L-Tat-MRPED)
PC12 cells
  dose dependence of inhibition of neurosecretion: dose dependent inhibition

## MRPEDpep: SEQ ID NO: 7 (KKKKKFSFKKPFKLSGLSFKRNRK; Synthetic peptide MRPED)
PC12 cells
  dose dependence of inhibition of neurosecretion: dose dependent inhibition
PC12 cells; 0 hours
  inhibition of secretion, stability test: >20%
PC12 cells; 1 hour
  inhibition of secretion, stability test: 23%
PC12 cells; 24 hours
  inhibition of secretion, stability test: 15%
PC12 cells; No Serum
  inhibition of secretion, stability test: 17%

## NH2-SNKTRIDEANQRATKMLGSG-COOH (H-SNKTRIDEANQRATKMLGSG-OH) [ESUP-A, reference compound]
PC12 cells
  inhibition of neurotransmitter secretion (in words): only minimal inhibition
PC12 cells; peptide 100 μM
  inhibition of PC12 neurotransmitter secretion: 20%

## Pal-Lys-Thr-Thr-Lys-Ser (Pal-KTTKS) [palmitoyl pentapeptide]
[1]; 3 ppm versus retinol 700 ppm
  improving the effects of photo-aging: as effective as retinol
[1]; in vivo
  side effects: not associated with any side effects
